Some test systems named below: UACC-257 melanoma; LOX IMVI melanoma; CAKI-1 renal; TK-10 renal; T-47D breast; UO-31 renal; NCI-H23 lung; SK-MEL-5 melanoma; HCT-116 colon; SNB-75 CNS.
Assay in all cases: growth of human tumour cells (NCI), 48 h

Molecules are shown by their SMILES. Values joined by “and” are separate entries in the source; they are usually repeats but may differ in a detail not shown here. Equal values may be shown once.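 Briefly, cells in 96-well plates were exposed to five compound concentrations for 48 h, and endpoints were estimated by linear interpolation. The concentration for 50% growth inhibition is given as GI50. TGI: concentration producing complete growth inhibition.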

The results in this text go back to PubChem BioAssay (NCI).

`COc1ccc(/C=C/c2ccnc3ccccc23)cc1`: the TGI with UACC-257 melanoma turned out to be 31.4 µM; with LOX IMVI melanoma, 31 µM; in the assay with CAKI-1 renal, 31.6 µM; with TK-10 renal, 31.7 µM; in the assay with T-47D breast, 37.4 µM; in the assay with UO-31 renal, 0.0937 µM. In addition, the values for the TGI with NCI-H23 lung, in the assay on SK-MEL-5 melanoma and in the assay on HCT-116 colon were 30.6 µM, 27.5 µM and 29.1 µM, respectively.

As for `CC(=O)NC1CCCN(O)C(=O)/C=C(/C)CCOC(=O)C(NC(C)=O)CCCN(O)C(=O)/C=C(/C)CCOC(=O)C(NC(C)=O)CCCN(O)C(=O)/C=C(/C)CCOC1=O.[Fe]` (configuration not stated), the GI50 with UACC-257 melanoma, in the assay with LOX IMVI melanoma, in the assay on CAKI-1 renal, with SNB-75 CNS, in the assay with TK-10 renal and in the assay on T-47D breast was > 100 µM in each case. The GI50 in the assay with UO-31 renal, with NCI-H23 lung, in the assay on SK-MEL-5 melanoma and with HCT-116 colon was > 100 µM in each case. In addition, the TGI with UACC-257 melanoma, in the assay with LOX IMVI melanoma, in the assay with CAKI-1 renal, with SNB-75 CNS, with TK-10 renal and with T-47D breast was > 100 µM throughout. Also, the TGI in the assay with UO-31 renal, in the assay with NCI-H23 lung, in the assay on SK-MEL-5 melanoma and with HCT-116 colon was > 100 µM in each case.

With `C/C(=C\CCc1ccsc1)CC/C=C(\C)CCCN1CCN(CCO)CC1`, the GI50 was 4.57 µM in the assay with UACC-257 melanoma; 1.8 µM in the assay on LOX IMVI melanoma; 4.26 µM in the assay on CAKI-1 renal; 2.45 µM in the assay on SNB-75 CNS; 2.5 µM in the assay on TK-10 renal; 2.03 µM in the assay with T-47D breast. Moreover, the GI50 in the assay with UO-31 renal is 4.95 µM; in the assay on NCI-H23 lung it was 3.37 µM; in the assay with SK-MEL-5 melanoma, 1.59 µM; in the assay with HCT-116 colon it was 2.71 µM. Further, the TGI in the assay on UACC-257 melanoma amounted to 16 µM; in the assay with LOX IMVI melanoma, 3.37 µM; in the assay with CAKI-1 renal it was 16.4 µM; in the assay on SNB-75 CNS, 8.51 µM; with TK-10 renal, 7.34 µM; in the assay with T-47D breast, 5.09 µM. The TGI in the assay on UO-31 renal was 20.5 µM; with NCI-H23 lung, 13.4 µM; with SK-MEL-5 melanoma, 2.97 µM; in the assay on HCT-116 colon, 9.26 µM.

Take `Cc1ccc(C2NC(=S)N3C(c4ccc(C)cc4)NC(=S)N23)cc1` (configuration not stated): the GI50 in the assay on UACC-257 melanoma was 10.3 µM; in the assay on LOX IMVI melanoma, 8.84 µM; with CAKI-1 renal, 2.68 µM; in the assay on SNB-75 CNS it was 2.87 µM; in the assay with TK-10 renal, 12.3 µM; in the assay on T-47D breast, 5.24 µM. Besides, the GI50 with UO-31 renal was 12 µM; in the assay with NCI-H23 lung it was 5.29 µM; with SK-MEL-5 melanoma, 3.88 µM; with HCT-116 colon, 4 µM. Further, the TGI in the assay with UACC-257 melanoma was determined as 22.6 µM; with LOX IMVI melanoma, 22.1 µM; in the assay on CAKI-1 renal, 7.01 µM; in the assay with SNB-75 CNS, 12.1 µM; in the assay with TK-10 renal, 26.9 µM; in the assay with T-47D breast it was 19.6 µM. In addition, the TGI was determined as 28.2 µM with UO-31 renal, 17.9 µM in the assay with NCI-H23 lung, 14.3 µM with SK-MEL-5 melanoma and 13.4 µM in the assay with HCT-116 colon.

As for `Cc1ccc(-n2nnc3c(sc4ccccc43)c2=O)cc1`, the GI50 with UACC-257 melanoma is > 100 µM; in the assay on LOX IMVI melanoma, 4.09 µM; in the assay on CAKI-1 renal it was 3.8 µM; in the assay on SNB-75 CNS it was 3.08 µM; in the assay on TK-10 renal it was 7.47 µM; in the assay on T-47D breast, 30.4 µM. The GI50 in the assay on UO-31 renal was 2.24 µM; in the assay on NCI-H23 lung it was 42.8 µM; with SK-MEL-5 melanoma it was 28.1 µM; in the assay with HCT-116 colon, 3.1 µM. Besides, the TGI in the assay on UACC-257 melanoma is > 100 µM; with LOX IMVI melanoma, > 100 µM; in the assay on CAKI-1 renal, > 100 µM; in the assay on SNB-75 CNS, 16.3 µM; in the assay with TK-10 renal it was 50 µM; in the assay with T-47D breast it was > 100 µM. Besides, the TGI in the assay with UO-31 renal was 7.75 µM; in the assay with NCI-H23 lung, > 100 µM; in the assay on SK-MEL-5 melanoma, > 100 µM; with HCT-116 colon, > 100 µM.

For `Cc1cc(C(=O)N2CCN(C)CC2)c2c(=O)n(-c3ccccc3)c(=O)n(CC(O)CN3CCN(c4ncccn4)CC3)c2n1` (configuration not stated), the GI50 in the assay on LOX IMVI melanoma, with CAKI-1 renal, in the assay on SNB-75 CNS, in the assay on TK-10 renal, in the assay with T-47D breast and in the assay on UO-31 renal was > 100 µM throughout. For the same molecule, the GI50 with NCI-H23 lung, in the assay with SK-MEL-5 melanoma and in the assay with HCT-116 colon was > 100 µM each time. Moreover, the TGI in the assay on LOX IMVI melanoma, with CAKI-1 renal, in the assay with SNB-75 CNS, with TK-10 renal, in the assay with T-47D breast and in the assay on UO-31 renal was > 100 µM throughout. Moreover, the TGI in the assay with NCI-H23 lung, in the assay with SK-MEL-5 melanoma and in the assay with HCT-116 colon was > 100 µM each time.

As for `O=C(NC1CCNCC1)c1[nH]ncc1NC(=O)c1c(Cl)cccc1Cl`, the GI50 in the assay on UACC-257 melanoma is 1.42 µM and 1.92 µM; with LOX IMVI melanoma, 0.281 µM and 0.261 µM; in the assay on CAKI-1 renal it was 14.9 µM and 4.09 µM; with SNB-75 CNS, 0.249 µM and 0.218 µM; in the assay on TK-10 renal, 1.49 µM and 1.44 µM; in the assay on T-47D breast, 1.18 µM and 1.01 µM. Further, the GI50 is 16.7 µM and > 7.2 µM in the assay on UO-31 renal; 1.03 µM and 0.393 µM with NCI-H23 lung; 2.44 µM and 0.961 µM in the assay on SK-MEL-5 melanoma; 0.315 µM and 0.285 µM in the assay on HCT-116 colon. In addition, the TGI with UACC-257 melanoma was 4.56 µM and > 7.47 µM; in the assay with LOX IMVI melanoma, > 100 µM; in the assay with CAKI-1 renal, > 100 µM; in the assay on SNB-75 CNS, 0.766 µM and 0.674 µM; with TK-10 renal, 6.93 µM and > 10 µM; in the assay on T-47D breast it was > 100 µM. Also, the TGI was > 76.6 µM in the assay on UO-31 renal; 9.87 µM and 3.23 µM in the assay with NCI-H23 lung; 7.67 µM and 5.53 µM in the assay on SK-MEL-5 melanoma; > 100 µM with HCT-116 colon.

With `O=C(O)c1ccccc1-c1ccccc1C(=O)Nc1ccc2c(c1)Cc1ccccc1-2`, the TGI in the assay on UACC-257 melanoma was 78.3 µM; in the assay on LOX IMVI melanoma, 54.5 µM; with CAKI-1 renal, > 100 µM; with SNB-75 CNS, > 100 µM; in the assay on TK-10 renal, > 100 µM; with T-47D breast, > 100 µM. The TGI in the assay on UO-31 renal is > 100 µM; in the assay with NCI-H23 lung, 36.6 µM; in the assay on SK-MEL-5 melanoma, 31.6 µM; with HCT-116 colon, 35.9 µM.
